# Measured values taken from US11673892B2, “Bicyclic compounds for use as RIP1 kinase inhibitors” (Genentech, Inc., priority 2017, dated 2023).
# Target: T1, human RIP1 kinase domain (2-375) (Homo sapiens, UniProt Q13546)
# T1 construct: Purified human RIP1 kinase domain (2-375) (50 nM); made in house; host or cells: baculovirus-infected insect cells
# T1 sequence (Q13546 2-375): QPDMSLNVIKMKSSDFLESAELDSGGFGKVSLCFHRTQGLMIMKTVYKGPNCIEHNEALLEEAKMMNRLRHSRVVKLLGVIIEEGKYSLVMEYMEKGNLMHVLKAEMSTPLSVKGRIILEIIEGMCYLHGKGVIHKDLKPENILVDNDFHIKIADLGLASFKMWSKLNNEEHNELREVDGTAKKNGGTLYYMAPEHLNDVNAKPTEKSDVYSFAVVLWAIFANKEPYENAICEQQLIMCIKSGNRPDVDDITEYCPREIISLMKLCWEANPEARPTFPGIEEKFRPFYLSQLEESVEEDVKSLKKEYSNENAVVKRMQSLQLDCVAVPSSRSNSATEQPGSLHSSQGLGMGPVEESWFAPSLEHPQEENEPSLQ
# Assay: RIP1 kinase inhibition biochemical assay (Transcreener ADP, fluorescence polarization)
# Conditions: Ki app (Morrison tight-binding fit); 50 nM enzyme, 50 uM ATP, 2 hours incubation
# Method in brief: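 Baculovirus-expressed human RIP1 kinase domain (2-375), 50 nM, incubated 2 h with compounds in pH 7.5 Hepes, 30 mM MgCl2, 50 uM ATP, 0.5% DMSO. ADP detected by Transcreener fluorescence-polarization tracer displacement; Ki^app from Morrison tight-binding fit.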
row,Compound,Ki [nM]
1,"F[C@H]1C[C@@H](c2ccccc2)n2nc(C3CC3C(F)(F)F)nc21 (stereo partly drawn) [Example 33, (5S,7S)-7-fluoro-5-phenyl-2-(2-(trifluoromethyl)cyclopropyl)-6,7-dihydro-5H-pyrrolo[1,2-b][1,2,4]triazole]",34
2,"CCc1nc2n(n1)[C@H](c1ccccc1)C[C@@H]2F [Example 36, (5S,7S)-2-ethyl-7-fluoro-5-phenyl-6,7-dihydro-5H-pyrrolo[1,2-b][1,2,4]triazole]",49
3,"CC(C)OCc1nc2n(n1)[C@H](c1ccccc1)C[C@@H]2F [Example 37, (5S,7S)-7-fluoro-2-(isopropoxymethyl)-5-phenyl-6,7-dihydro-5H-pyrrolo[1,2-b][1,2,4]triazole]",3000
4,"O=Cc1cnn(-c2nc3n(n2)[C@H](c2ccccc2)C[C@@H]3F)c1 [Example 40, 1-[(5S,7S)-7-fluoro-5-phenyl-6,7-dihydro-5H-pyrrolo[1,2-b][1,2,4]triazol-2-yl]pyrazole-4-carbaldehyde]",52
5,"F[C@H]1C[C@@H](c2ccccc2)n2nc(C(F)(F)C34CC(C3)C4)nc21 [Example 42, (5S,7S)-2-[1-bicyclo[1.1.1]pentanyl(difluoro)methyl]-7-fluoro-5-phenyl-6,7-dihydro-5H-pyrrolo[1,2-b][1,2,4]triazole]",6
6,"F[C@H]1C[C@@H](c2ccccc2)n2nc(C#CC3CC3)nc21 [Example 43, (5S,7S)-2-(2-cyclopropylethynyl)-7-fluoro-5-phenyl-6,7-dihydro-5H-pyrrolo[1,2-b][1,2,4]triazole]",450
7,"CC#Cc1nc2n(n1)[C@H](c1ccccc1)C[C@@H]2F [Example 44, (5S,7S)-7-fluoro-5-phenyl-2-prop-1-ynyl-6,7-dihydro-5H-pyrrolo[1,2-b][1,2,4]triazole]",890
8,"N#CC(F)c1nc2n(n1)[C@H](c1ccccc1)C[C@@H]2F (stereo partly drawn) [Example 48, 2-fluoro-2-[(5S,7S)-7-fluoro-5-phenyl-6,7-dihydro-5H-pyrrolo[1,2-b][1,2,4]triazol-2-yl]acetonitrile]",910
9,"F[C@H]1C[C@@H](c2ccccc2)n2nc(-n3cc(Cl)cn3)nc21 [Example 60, (5S,7S)-2-(4-chloropyrazol-1-yl)-7-fluoro-phenyl-6,7-dihydro-5H-pyrrolo[1,2-b][1,2,4]triazole]",4.5
10,"[2H]C(c1nc2n(n1)[C@H](c1ccccc1)C[C@@H]2F)C1CC1 (stereo partly drawn) [Example 101, (5S,7S)-2-[cyclopropyl(deuterio)methyl]-7-fluoro-5-phenyl-6,7-dihydro-5H-pyrrolo[1,2-b][1,2,4]triazole]",9
11,"OC(c1nc2n(n1)[C@H](c1ccccc1)C[C@@H]2F)[C@H]1C[C@@H]1F (stereo partly drawn) [Example 106, [(1R,2S)-2-fluorocyclopropyl]-[(5S,7S)-7-fluoro-5-phenyl-6,7-dihydro-5H-pyrrolo[1,2-b][1,2,4]triazol-2-yl]methanol]",110
12,"OC(c1nc2n(n1)[C@H](c1ccccc1)C[C@@H]2F)[C@@H]1C[C@H]1F (stereo partly drawn) [Example 108, [(1S,2R)-2-fluorocyclopropyl]-[(5S,7S)-7-fluoro-5-phenyl-6,7-dihydro-5H-pyrrolo[1,2-b][1,2,4]triazol-2-yl]methanol]",120
13,"Fc1ccccc1[C@@H]1C[C@H](F)c2nc(CC3CC3(F)F)nn21 (stereo partly drawn) [Example 112, (5S,7S)-2-[(2,2-difluorocyclopropyl)methyl]-7-fluoro-5-(2-fluorophenyl)-6,7-dihydro-5H-pyrrolo[1,2-b][1,2,4]triazole]",4.5
14,"CC(F)(F)C(O)c1nc2n(n1)[C@H](c1ccccc1)C[C@@H]2F (stereo partly drawn) [Example 117, 2,2-difluoro-1-[(5S,7S)-7-fluoro-5-phenyl-6,7-dihydro-5H-pyrrolo[1,2-b][1,2,4]triazol-2-yl]propan-1-ol]",420
